Reference: patent US20200405696A1, “INHIBITORS OF INDOLEAMINE 2,3-DIOXYGENASE AND/OR TRYPTOPHAN 2,3-DIOXYGENASE” (IDORSIA PHARMACEUTICALS LTD, priority 2018, published 2020)

Tests used:
[1] = molecular target: T1, Recombinant full-length human IDO1 (Homo sapiens, UniProt P14902); assay: IDO1 enzymatic assay (NFK quantified by LCMS); type: biochemical; settings: 2 nM enzyme, 5 μM L-tryptophan, pH6.5, 30 minutes pre-incubation at RT; mean values when measured multiple times; read-out: hIDO activity (IC50 in nM)
T1 construct: Recombinant full-length human IDO1 with a N-terminal hexahistidine tag; hexahistidine (His6) (N); made in house; host or cells: E. coli
Experimental: 1) Testing Compounds for IDO Inhibitory Activity in an IDO1 Enzymatic Assay:
Recombinant full-length human IDO1 with a N-terminal hexahistidine tag expressed in E. coli and purified to homogeneity is incubated at a final concentration of 2 nM in assay buffer consisting of 37.5 mM phosphate buffer at pH6.5 supplemented with 10 mM ascorbic acid, 0.45 μM methylene blue, 50U/ml catalase, 0.01% BSA, and 0.01% Tween 20 (protocol modified from Seegers et al, JBS 2014). Example compounds are serially diluted in DMSO, further diluted in phosphate buffer, and added to the enzyme at final concentrations ranging from 10 μM to 0.5 nM. The final DMSO concentration is 0.6%. Following a pre-incubation of 30 minutes at RT, the reaction is started by the addition of L-tryptophan at a final concentration of 5 μM in assay buffer. After 30 minutes of incubation at RT, 3 μL of the 20 μl reaction mixture are transferred to a 384 deep well plate containing 25 μL of deionized water. 100 μl of 200 nM L-Tryptophan-(indole-d5) in cold 100% methanol are added followed by a 10 minutes centrifugation at 3220×g at 4° C. An additional 75 μL of deionized water are then added followed by a 10 minutes centrifugation at 3220×g at 4° C. The product of the reaction N′-Formylkynurenine (NFK) is quantified by LCMS and normalized to the L-Tryptophan-(indole-d5) signal. Samples with 0.6% DMSO (0% effect) and a TDO/IDO inhibitor (100% effect) are used as control samples to set the parameters for the non-linear regression necessary for the determination of the half-maximal inhibitory concentration (IC50) for each compound. For each compound concentration the percentage of activity compared to 0% and 100% effect is calculated as average±STDEV (each concentration measured in duplicate). IC50 values and curves are generated with XLfit software (IDBS) using Dose-Response One Site model 203 (four parameter logistic curve model). The calculated IC50 values may fluctuate depending on the daily assay performance. Fluctuations of this kind are known to those skilled in the art. When compounds are measured multiple times, mean values are given.

[2] = molecular target: T2, Recombinant human TDO comprising amino acids 19-407 (Homo sapiens, UniProt P48775); assay: TDO2 enzymatic assay (NFK quantified by LCMS); type: biochemical; settings: 15 nM enzyme, 200 μM L-tryptophan, pH7, 30 minutes pre-incubation at RT; mean values when measured multiple times; read-out: hTDO activity (IC50 in nM)
T2 construct: Recombinant human TDO comprising amino acids 19-407 with a N-terminal hexahistidine tag; hexahistidine (His6) (N); made in house; host or cells: E. coli
Experimental: 2) Testing Compounds for TDO Inhibitory Activity in a TDO2 Enzymatic Assay:
Recombinant human TDO comprising amino acids 19-407 with a N-terminal hexahistidine tag expressed in E. coli and purified to homogeneity is incubated at a final concentration of 15 nM in assay buffer consisting of 75 mM phosphate buffer at pH7 supplemented with 100 μM ascorbic acid, 50U/ml Catalase, 0.01% BSA, and 0.01% Tween 20 (protocol modified from Seegers et al, JBS 2014). Example compounds are serially diluted in DMSO, further diluted in phosphate buffer, and added to the reaction mixture at final concentrations ranging from 10 μM to 0.5 nM. The final DMSO concentration is 0.6%. Following a pre-incubation of 30 minutes at RT, the reaction is started by the addition of L-tryptophan at a final concentration of 200 μM in assay buffer. After 30 minutes of incubation at RT, 3 μL of the reaction mixture are transferred to a 384 deep well plate containing 25 μL of deionized water. 100 μl of 200 nM L-Tryptophan-(indole-d5) in cold 100% methanol are added followed by a 10 minutes centrifugation at 3220×g at 4° C. An additional 75 μL of deionized water are then added followed by a 10 minutes centrifugation at 3220×g at 4° C. The product of the reaction N′-Formylkynurenine (NFK) is quantified by LCMS and normalized to the L-Tryptophan-(indole-d5) signal. Samples with 0.6% DMSO (0% effect) and a TDO/IDO inhibitor (100% effect) are used as control samples to set the parameters for the non-linear regression necessary for the determination of the half-maximal inhibitory concentration (IC50) for each compound. For each compound concentration the percentage of activity compared to 0% and 100% effect is calculated as average±STDEV (each concentration measured in duplicate). IC50 values and curves are generated with XLfit software (IDBS) using Dose-Response One Site model 203 (four parameter logistic curve model). The calculated IC50 values may fluctuate depending on the daily assay performance. Fluctuations of this kind are known to those skilled in the art. When compounds are measured multiple times, mean values are given.

T2 sequence (P48775 19-406 limits assumed): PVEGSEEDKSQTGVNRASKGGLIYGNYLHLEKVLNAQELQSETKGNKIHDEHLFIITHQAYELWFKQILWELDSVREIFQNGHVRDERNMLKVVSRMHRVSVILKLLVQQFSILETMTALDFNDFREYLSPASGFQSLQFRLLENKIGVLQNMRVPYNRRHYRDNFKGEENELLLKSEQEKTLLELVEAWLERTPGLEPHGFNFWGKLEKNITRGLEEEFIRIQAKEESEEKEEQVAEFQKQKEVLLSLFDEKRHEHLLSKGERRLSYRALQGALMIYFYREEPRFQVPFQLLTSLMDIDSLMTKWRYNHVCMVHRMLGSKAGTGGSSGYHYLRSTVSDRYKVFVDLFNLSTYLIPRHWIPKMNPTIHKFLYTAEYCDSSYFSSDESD
T1 sequence (P14902 whole entry): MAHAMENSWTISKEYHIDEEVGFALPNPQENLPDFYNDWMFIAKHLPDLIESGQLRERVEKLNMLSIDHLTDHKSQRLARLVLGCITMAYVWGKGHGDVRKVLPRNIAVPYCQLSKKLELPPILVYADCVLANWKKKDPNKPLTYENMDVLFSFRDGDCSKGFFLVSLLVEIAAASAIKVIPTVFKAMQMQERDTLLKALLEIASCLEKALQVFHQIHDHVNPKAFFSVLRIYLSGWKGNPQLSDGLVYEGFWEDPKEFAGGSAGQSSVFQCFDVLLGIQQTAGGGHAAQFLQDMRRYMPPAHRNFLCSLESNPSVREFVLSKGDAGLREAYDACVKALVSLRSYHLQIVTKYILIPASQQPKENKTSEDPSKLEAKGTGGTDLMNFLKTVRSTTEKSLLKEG

IC50 [1] [nM] | IC50 [2] [nM] | Compound
38.8 | > 10200 | COc1ccc(-n2cc(C(O)c3c(C4(C)CC4)sc4cncn34)nn2)cc1 (racemic) [Example 44, rac-[1-(4-Methoxy-phenyl)-1H-[1,2,3]triazol-4-yl]-[2-(1-methyl-cyclopropyl)-imidazo[5,1-b]thiazol-3-yl]-methanol]
44.4 | > 10200 | CCc1sc2cncn2c1C(O)c1cn(-c2ccc(N3CCOCC3)cc2)nn1 (racemic) [Example 47, rac-(2-Ethyl-imidazo[5,1-b]thiazol-3-yl)-[1-(4-morpholin-4-yl-phenyl)-1H-[1,2,3]triazol-4-yl]-methanol]
60.6 | > 10200 | CCc1sc2cncn2c1C(O)c1cn(-c2ccc(C3(CO)CC3)cc2)nn1 (racemic) [Example 48, rac-(2-Ethyl-imidazo[5,1-b]thiazol-3-yl)-{1-[4-(1-hydroxymethyl-cyclopropyl)-phenyl]-1H-[1,2,3]triazol-4-yl}-methanol]
10.9 | 2110 | CCc1sc2cncn2c1C(O)c1cn(-c2ccc(NC(=O)OC)cc2)nn1 (racemic) [Example 49, rac-(4-{4-[(2-Ethyl-imidazo[5,1-b]thiazol-3-yl)-hydroxy-methyl]-[1,2,3]triazol-1-yl}-phenyl)-carbamic Acid Methyl Ester]
12.3 | > 10200 | CCc1sc2cncn2c1C(O)c1cn(-c2ccc(OCC3CC3)cc2)nn1 (racemic) [Example 54, rac-[1-(4-Cyclopropylmethoxy-phenyl)-1H-[1,2,3]triazol-4-yl]-(2-ethyl-imidazo[5,1-b]thiazol-3-yl)-methanol]
205 | > 10200 | CCOc1ccc(-n2cc(C(O)c3c(C)sc4cncn34)nn2)cn1 (racemic) [Example 55, rac-[1-(6-Ethoxy-pyridin-3-yl)-1H-[1,2,3]triazol-4-yl]-(2-methyl-imidazo[5,1-b]thiazol-3-yl)-methanol]
422 | > 10200 | Cc1sc2cncn2c1C(O)c1cn(-c2ccc(N3CCOCC3)cc2)nn1 (racemic) [Example 56, rac-(2-Methyl-imidazo[5,1-b]thiazol-3-yl)-[1-(4-morpholin-4-yl-phenyl)-1H-[1,2,3]triazol-4-yl]-methanol]
391 | > 10200 | Cc1sc2cncn2c1C(O)c1cn(-c2ccc(C3(CO)CC3)cc2)nn1 (racemic) [Example 57, rac-{1-[4-(1-Hydroxymethyl-cyclopropyl)-phenyl]-1H-[1,2,3]triazol-4-yl}-(2-methyl-imidazo[5,1-b]thiazol-3-yl)-methanol]
69.1 | 8050 | COC(=O)Nc1ccc(-n2cc(C(O)c3c(C)sc4cncn34)nn2)cc1 (racemic) [Example 58, rac-(4-{4-[Hydroxy-(2-methyl-imidazo[5,1-b]thiazol-3-yl)-methyl]-[1,2,3]triazol-1-yl}-phenyl)-carbamic Acid Methyl Ester]
50.4 | 8400 | Cc1sc2cncn2c1C(O)c1cn(-c2ccc3[nH]ccc3c2)nn1 (racemic) [Example 59, rac-[1-(1H-Indol-5-yl)-1H-[1,2,3]triazol-4-yl]-(2-methyl-imidazo[5,1-b]thiazol-3-yl)-methanol]
294 | > 10200 | Cc1sc2cncn2c1C(O)c1cn(-c2cccc(C#N)c2)nn1 (racemic) [Example 60, rac-3-{4-[Hydroxy-(2-methyl-imidazo[5,1-b]thiazol-3-yl)-methyl]-[1,2,3]triazol-1-yl}-benzonitrile]
27.7 | > 10200 | Cc1sc2cncn2c1C(O)c1cn(-c2ccc(OCC3CC3)cc2)nn1 (racemic) [Example 63, rac-[1-(4-Cyclopropylmethoxy-phenyl)-1H-[1,2,3]triazol-4-yl]-(2-methyl-imidazo[5,1-b]thiazol-3-yl)-methanol]

More lines, now with the values behind:

Compound | IC50 [1] [nM] | IC50 [2] [nM]
Cn1cc(-n2cc(C(O)c3c(C4CC4)sc4cncn34)nn2)cn1 (racemic) [Example 43, rac-(2-Cyclopropyl-imidazo[5,1-b]thiazol-3-yl)-[1-(1-methyl-1H-pyrazol-4-yl)-1H-[1,2,3]triazol-4-yl]-methanol] | 95 | > 10200
OC(c1cn(-c2ccc(OCc3ccccc3)cc2)nn1)c1c(C2CC2)sc2cncn12 (racemic) [Example 45, rac-[1-(4-Benzyloxy-phenyl)-1H-[1,2,3]triazol-4-yl]-(2-cyclopropyl-imidazo[5,1-b]thiazol-3-yl)-methanol] | 46.4 | > 10200
CCOc1ccc(-n2cc(C(O)c3c(CC)sc4cncn34)nn2)cn1 (racemic) [Example 46, rac-[1-(6-Ethoxy-pyridin-3-yl)-1H-[1,2,3]triazol-4-yl]-(2-ethyl-imidazo[5,1-b]thiazol-3-yl)-methanol] | 14.3 | > 10200
CCc1sc2cncn2c1C(O)c1cn(-c2ccc3[nH]ccc3c2)nn1 (racemic) [Example 50, rac-(2-Ethyl-imidazo[5,1-b]thiazol-3-yl)-[1-(1H-indol-5-yl)-1H-[1,2,3]triazol-4-yl]-methanol] | 9.63 | 1970
CCc1sc2cncn2c1C(O)c1cn(-c2cccc(C#N)c2)nn1 (racemic) [Example 51, rac-3-{4-[(2-Ethyl-imidazo[5,1-b]thiazol-3-yl)-hydroxy-methyl]-[1,2,3]triazol-1-yl}-benzonitrile] | 37.1 | > 10200
CCc1sc2cncn2c1C(O)c1cn(-c2cncc3ccccc23)nn1 (racemic) [Example 52, rac-(2-Ethyl-imidazo[5,1-b]thiazol-3-yl)-(1-isoquinolin-4-yl-1H-[1,2,3]triazol-4-yl)-methanol] | 41.8 | 5060
CCc1sc2cncn2c1C(O)c1cn(Cc2ccccc2)nn1 (racemic) [Example 53, rac-(1-Benzyl-1H-[1,2,3]triazol-4-yl)-(2-ethyl-imidazo[5,1-b]thiazol-3-yl)-methanol] | 73.6 | > 10200
Cc1sc2cncn2c1C(O)c1cn(-c2cncc3ccccc23)nn1 (racemic) [Example 61, rac-(1-Isoquinolin-4-yl-1H-[1,2,3]triazol-4-yl)-(2-methyl-imidazo[5,1-b]thiazol-3-yl)-methanol] | 493 | > 10200
Cc1sc2cncn2c1C(O)c1cn(Cc2ccccc2)nn1 (racemic) [Example 62, rac-(1-Benzyl-1H-[1,2,3]triazol-4-yl)-(2-methyl-imidazo[5,1-b]thiazol-3-yl)-methanol] | 795 | > 10200
COc1ccc(-n2cc(C(O)c3c(-c4cccc(F)c4)sc4cncn34)nn2)cc1 (racemic) [Example 64, rac-[2-(3-Fluoro-phenyl)-imidazo[5,1-b]thiazol-3-yl]-[1-(4-methoxy-phenyl)-1H-[1,2,3]triazol-4-yl]-methanol] | 177 | > 10200
